This test deals with HepG2 viability, ATP luminescence, 48 h. In words: HepG2 cell cytotoxicity, dose response, cytotoxicity control (AID 2060596).

These results are taken from PubChem BioAssay AID2060596 (Global Health Medicines R&D, GSK, 2025).

Activity calls are given as the source filed them.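 How the source made its calls: active means IC50 at or below about 50119 nM, measured in restricted growth medium; inactive means the rest.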 A value given as a limit tells only on which side of the number the result lay.

One may read the IC50 as the concentration that inhibits the measured activity by half. Regarding `O=C(Nc1ccc(N2CCCC2)nc1)N1CCN(c2cnccn2)CC1`, the IC50 was > 100 µM (inactive).

For `Cn1cccc1C1CCCN1CC(=O)Nc1ccc(S(=O)(=O)N2CCOCC2)cc1` (stereo not drawn), the IC50 is > 100 µM (inactive).

Consider `CC(C)Oc1ccc(-c2nnc(Oc3cccc4c3CCN(CCC(N)=O)CC4)s2)cc1C#N`, for which the IC50 was 20 µM.

For the molecule `Cc1cccc(-c2nn(Cc3ccc(C(=O)NCCCO)cc3)c(=O)cc2N2CCCC(CO)C2)c1` (stereo not drawn), the IC50 is > 100 µM (inactive).

Take `O=C(Nc1nnc(-c2ccccc2)s1)N1CCCN(c2ncccn2)CC1`: the IC50 is > 100 µM (inactive).

Take `COc1ccc2oc(C(=O)NC3CCC(Oc4ncccn4)CC3)cc2c1` (stereo not drawn): the IC50 was > 100 µM (inactive).

As to `CCN(C(=O)C=Cc1ccc(S(=O)(=O)N2CCc3ccccc32)cc1)C1CCS(=O)(=O)C1` (stereo not drawn), the IC50 is > 100 µM (inactive).

Turning to `CN(C(=O)C[C@@H]1CCN(C(=O)C2CC2)C1)c1ccc(-c2ccc(C#N)cc2)cc1`, the IC50 is > 100 µM (inactive).

Consider `O=C(Nc1cccnc1)C1CCN(c2ccc(-c3ccco3)nn2)CC1`, for which the IC50 is > 100 µM (inactive).

`O=C(COc1ccc(Br)cc1F)N1CCN(c2cnccn2)CC1`: the IC50 was > 100 µM (inactive).

Take `CCN(CC)c1ccc(C(=O)COc2ccc3c(c2)CCNCC3)cc1`: the 50% inhibitory concentration (IC50) was 31.6 µM.

For `O=C(CCN=C1NS(=O)(=O)c2ccccc21)Nc1ccc(S(=O)(=O)N2CCCC2)cc1`, the IC50 is > 100 µM (inactive).

Take `O=C(CCn1nnc2cc(S(=O)(=O)N3CCCC3)ccc21)N1CCN(c2ccccn2)CC1`: the IC50 was > 100 µM (inactive).

As for `CCCOc1cncc(S(=O)(=O)c2ccc3c(c2)CCN(C2CCC2)CC3)c1`, the IC50 is 50.1 µM.

On to `O=C(/C=C/c1n[nH]c2ccccc12)N1CCN(c2cnccn2)CC1`, for which the IC50 is > 100 µM (inactive).

With `O=C(CCCc1ncc(-c2ccccc2)o1)N1CCOC2CCCC21` (stereo not drawn), the IC50 was > 100 µM (inactive).

As for `N#Cc1c(N)n[nH]c1CCCNC(=O)c1ccc(Cl)c(S(=O)(=O)N2CCCC2)c1`, the IC50 is > 100 µM (inactive).

With `COc1ccc(NC(=O)c2ccc3c(=O)n(Cc4ccccn4)cnc3c2)cc1N1CCN(C)CC1`, the IC50 is > 100 µM (inactive).

Consider `Cc1cc(Cl)ccc1OCC(=O)N1CCc2c(cnc(C)c2CNC(=O)c2ccc(=O)[nH]n2)C1`, for which the IC50 is > 100 µM (inactive).

In the case of `Cc1cc(-c2cnc(N3CCn4c(nnc4C4CC4)C3)nc2-c2ccncc2)on1`, the IC50 is > 100 µM (inactive).

With `COc1ccc(C(=O)N2CCN(c3ccc(-n4cccn4)nn3)CC2)cc1OC`, the IC50 was > 100 µM (inactive).

For `Cc1ccc2nc(CCNC(=O)CCS(=O)(=O)c3ccc4c(c3)CC(=O)N4C)[nH]c2c1`, the IC50 was > 100 µM (inactive).

For `O=C1CCCN1c1ccc(S(=O)(=O)N2CCN(S(=O)(=O)c3ccccc3)CC2)cc1`, the IC50 is > 100 µM (inactive).

As to `O=C(CCCc1c[nH]c2ccccc12)N1CCN(c2ccc(N3CCOCC3)nn2)CC1`, the IC50 was > 100 µM (inactive).

In the case of `O=C(c1cc2ccccc2[nH]1)N1CCC2(CC(Nc3ccncn3)C2)C1` (stereo not drawn), the IC50 is 63.1 µM.

As for `NC(=O)CC1CCN(C(=O)c2sc3sccc3c2Cl)CC1`, the IC50 is > 100 µM (inactive).

`N#Cc1cccc(NC(=O)CNc2ccccc2C(=O)NC2CC2)c1`: the IC50 is > 100 µM (inactive).

Turning to `COc1ccc(N2CCN(C(=O)c3csc(Nc4ccccc4S(C)(=O)=O)n3)CC2)nc1`, the IC50 was > 100 µM (inactive).

`O=C(/C=C/c1n[nH]c2ccccc12)Nc1ccc(C(=O)NCCN2CCOCC2)cc1`: the IC50 was > 100 µM (inactive).

`Cc1nn(C2CCS(=O)(=O)C2)c(C)c1CN(C)C(=O)CN1C(=O)NC2(CCCCC2C)C1=O` (stereo not drawn): the IC50 was 79.4 µM.

Regarding `O=C(NCCCN1CCc2ccccc21)c1ccc2c(=O)n(Cc3ccccn3)cnc2c1`, the IC50 is > 100 µM (inactive).

Turning to `COc1ccc(-c2ccc(CNC(=O)c3cc(C(=O)NC(C)C)ccc3Cl)cc2)cn1`, the IC50 is > 100 µM (inactive).

In the case of `O=C1CSc2ccc(C(=O)Nc3ccc(-c4nnc5n4CCCCC5)cc3)cc2N1`, the IC50 was > 100 µM (inactive).
